{"source": "patent US20040018560A1", "about": "“Crystallized LXR polypeptide in complex with a ligand and screening methods employing same” (priority 2002, published 2004)", "molecules": {"B1": {"name": "human LXRβ LBD (ligand binding domain) containing amino acids 214-462 (receptor)", "chain": "GSEGEGVQLTAAQELMIQQLVAAQLQCNKRSFSDQPKVTPWPLGADPQSRDARQQRFAHFTELAIISVQEIVDFAKQVPGFLQLGREDQIALLKASTIEIMLLETARRYNHETECITFLKDFTYSKDDFHRAGLQVEFINPIFEFSRAMRRLGLDDAEYALLIAINIFSADRPNVQEPGRVEALQQPYVEALLSYTRIKRPQDQLRFPRMLMKLVSLRTLSSVHSEQVFALRLQDKKLPPLLSEIWDVHE", "notes": "It is entered here as the monomer, so that self-association is the pair m1-m1; also called LXR LBD"}}, "key": {"[1]": {"system": "LXR", "experiment": "Ligand binding to LXR"}, "[2]": {"system": "LXR", "conditions": "both LXR subtypes; compared with the natural ligands; cited from earlier work"}, "[3]": {"system": "LXR", "experiment": "LXR activation (general statements, literature)"}, "[4]": {"molecular_target": "T1, human LXRα LBD (Homo sapiens, UniProt Q13133, H421A)", "T1 construct": "LXRα (amino acids 164-447); expressed in transfected cells; host or cells: CV-1 cells", "T1 sequence (Q13133 164-447 H421A)": "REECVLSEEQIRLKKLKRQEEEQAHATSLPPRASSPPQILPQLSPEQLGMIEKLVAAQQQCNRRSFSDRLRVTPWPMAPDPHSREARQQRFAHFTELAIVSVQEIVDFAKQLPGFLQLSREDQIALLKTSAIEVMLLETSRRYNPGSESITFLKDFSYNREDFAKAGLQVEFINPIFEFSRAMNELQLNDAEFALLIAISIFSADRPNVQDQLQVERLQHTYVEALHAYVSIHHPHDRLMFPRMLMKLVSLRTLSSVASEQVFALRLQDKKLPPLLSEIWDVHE", "experiment": "Gal4-LXRα LBD (wild type and mutant) transactivation, SPAP reporter, transient transfection in CV-1 cells", "format": "cell-based", "conditions": "compound 10 μM, 18 hours", "protocol": "FIG. 7A is a bar graph depicting the effect of mutating LXR LBD pocket residues on transcriptional activity, which was determined by measuring the amount of SPAP synthesized in CV-1 cells by a transiently transfected Gal4 fusion of LXRα LBD.\n(§1) To explore these differences, site directed mutants were made targeting specific pocket residues that interacted more directly with one compound than the other. […] However, the gauche conformation of I317 extended into a pocket near the beta turn. […] By contrast, O3 of EPC extended into a hydrophilic pocket (see FIG. 6B) which includes residues E281 (E267α), E315 (E301α), and R319 (R305α). Mutations in this region permit identification of the necessary polar interactions for EPC binding. The transactivation capability of gal4-fusions of wild-type and mutant LXRα and LXRβ LBDs were measured by their ability to transcribe secreted placental alkaline phosphatase (SPAP) on a UAS-tk promoter in transient transfection experiments in CV-1 cells. See Laboratory Example 4. […]\n(§2) Wild type and mutant LXR transactivation activity was measured in CV-1 cells. […]\n(§3) Alkaline phosphatase activity was assayed by adding 200 μl substrate (7 mM p-nitrophenyl phosphate in 1 M diethanolamine/0.28 M sodium chloride/0.5 mM magnesium chloride, pH 9.85) to each well of the plates, incubating at room temperature, and reading absorbance at 405 nm. […]"}, "[5]": {"molecular_target": "T2, human LXRβ LBD (Homo sapiens, UniProt P55055, Y334W)", "T2 construct": "LXRβ (amino acids 155-462); expressed in transfected cells; host or cells: CV-1 cells", "T2 sequence (P55055 155-460 Y334W)": "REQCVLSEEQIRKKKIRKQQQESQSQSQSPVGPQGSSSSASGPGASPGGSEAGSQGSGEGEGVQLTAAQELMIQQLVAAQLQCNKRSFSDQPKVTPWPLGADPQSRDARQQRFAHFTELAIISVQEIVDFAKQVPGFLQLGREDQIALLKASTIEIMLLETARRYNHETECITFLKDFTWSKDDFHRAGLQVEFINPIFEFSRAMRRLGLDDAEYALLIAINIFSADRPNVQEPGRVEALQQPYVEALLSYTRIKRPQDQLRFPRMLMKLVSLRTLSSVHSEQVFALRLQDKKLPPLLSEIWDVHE", "experiment": "Gal4-LXRβ LBD (wild type and mutant) transactivation, SPAP reporter, transient transfection in CV-1 cells", "format": "cell-based", "conditions": "LXRβ Y335W mutant LBD, compound 10 μM, 18 hours", "protocol": "(§4) FIG. 7B is a bar graph depicting the effect of mutating LXR LBD pocket residues on transcriptional activity, which was determined by measuring the amount of SPAP synthesized in CV-1 cells by a transiently transfected Gal4 fusion of LXRβ LBD.\nas §1, §2, §3"}, "[6]": {"molecular_target": "T3, human LXRβ LBD (Homo sapiens, UniProt P55055, H434A)", "T3 construct": "LXRβ (amino acids 155-462); expressed in transfected cells; host or cells: CV-1 cells", "T3 sequence (P55055 155-460 H434A)": "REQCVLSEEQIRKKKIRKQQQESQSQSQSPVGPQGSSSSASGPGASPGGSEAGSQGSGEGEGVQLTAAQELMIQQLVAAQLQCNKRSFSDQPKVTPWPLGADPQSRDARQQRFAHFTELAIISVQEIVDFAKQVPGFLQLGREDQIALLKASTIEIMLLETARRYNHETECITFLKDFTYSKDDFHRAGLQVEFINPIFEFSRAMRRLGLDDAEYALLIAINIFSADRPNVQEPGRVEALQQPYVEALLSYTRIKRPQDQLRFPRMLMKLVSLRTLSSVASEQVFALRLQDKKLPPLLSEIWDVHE", "experiment": "Gal4-LXRβ LBD (wild type and mutant) transactivation, SPAP reporter, transient transfection in CV-1 cells", "format": "cell-based", "conditions": "LXRβ H435A mutant LBD, compound 10 μM, 18 hours", "protocol": "as §4, §1, §2, §3"}, "[7]": {"system": "LXR", "experiment": "Co-activator recruitment by LXR", "format": "biochemical"}, "[8]": {"molecular_target": "B1", "experiment": "X-ray co-crystal structure, LXRβ LBD with EPC and SRC1 peptide", "protocol": "Crystallization trials were carried out using the hanging drop method by mixing 2 μl of protein solution with 2 μl of well buffer. Both the LXRβ/ligand complexes crystallized out of 10-12% PEG 3350-8000 with 0.2M salt at 40° C. Usable LXRβ/T0901317 crystals were obtained from a number of salts including NaF, KF, NaCl, KCl, Na formate, Na acetate, and K acetate. The best LXRβ/EPC (24(S), 25-epoxycholesterol) crystals were obtained with ammonium sulfate and lithium sulfate salts. All crystals took 4-6 weeks to grow. Crystals were frozen in LN₂ after transferring stepwise to a cryo buffer containing the well buffer with 30% PEG 400."}, "[9]": {"molecular_target": "the molecule itself", "experiment": "X-ray crystal structures, homodimer in the asymmetric unit"}}, "data": [{"molecule": "O=S(=O)(c1ccccc1)N(CC(F)(F)F)c1ccc(C(O)(C(F)(F)F)C(F)(F)F)cc1", "note": "[T317, N-(2,2,2-trifluoroethyl)-N-[4-(2,2,2-trifluoro-1-hydroxy-1-trifluoromethyl-ethyl)-phenyl]-benzenesulfonamide]", "values": [{"measurement": "binding to LXR", "setting": "[1]", "value": "bound tightly"}, {"measurement": "potency in activating both LXRs", "setting": "[2]", "value": "as potent"}, {"measurement": "efficacy of LXR activation", "setting": "[3]", "value": "efficacious"}, {"measurement": "transcriptional activity (SPAP) with H421A mutant", "setting": "[4]", "value": "completely knocked out the activity"}, {"measurement": "transcriptional activity (SPAP) with Y335W mutant", "setting": "[5]", "value": "some modulation"}, {"measurement": "transcriptional activity (SPAP) with H435A mutant", "setting": "[6]", "value": "completely knocked out the activity"}]}, {"molecule": "CC(C)CCC[C@@H](C)[C@H]1CC[C@H]2[C@@H]3CC=C4C[C@@H](O)CC[C@]4(C)[C@H]3CC[C@]12C", "note": "[cholesterol]", "values": [{"measurement": "binding to LXR", "setting": "[1]", "value": "do bind to LXR"}, {"measurement": "recruitment of co-activator", "setting": "[7]", "value": "do not recruit co-activator"}]}, {"molecule": "CPSSHSSLTERHKILHRLLQQGSPS (also called SRC1(2); SRC peptide)", "note": "[SRC1 peptide (second LXXLL motif of the nuclear receptor co-activator SRC-1)]", "values": [{"measurement": "binding result", "setting": "[8]", "value": "binds"}]}, {"molecule": "B1", "values": [{"measurement": "binding result", "setting": "[9]", "value": "binds"}]}]}
